Source: PubChem BioAssay (NCI)
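Exposure lasted 48 hours, with cells grown in 96-well plates and compounds tested at five concentrations. GI50 is the concentration that inhibits growth by half. Definition used: TGI = concentration required for complete inhibition of growth.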

How the values were obtained:
Assay in all cases: inhibition of tumour cell growth, NCI panel, 48 h
LOX IMVI melanoma = tested on: LOX IMVI melanoma
K-562 leukemia = tested on: K-562 leukemia
IGROV1 ovarian = tested on: IGROV1 ovarian
NCI/ADR-RES ovarian = tested on: NCI/ADR-RES ovarian
MCF7 breast = tested on: MCF7 breast
COLO 205 colon = tested on: COLO 205 colon
HOP-92 NSCLC = tested on: HOP-92 NSCLC
UO-31 renal = tested on: UO-31 renal
OVCAR-4 ovarian = tested on: OVCAR-4 ovarian
RPMI-8226 leukemia = tested on: RPMI-8226 leukemia
SF-539 CNS = tested on: SF-539 CNS
SF-268 CNS = tested on: SF-268 CNS
BT-549 breast = tested on: BT-549 breast
OVCAR-8 ovarian = tested on: OVCAR-8 ovarian
NCI-H522 lung = tested on: NCI-H522 lung
CCRF-CEM leukemia = tested on: CCRF-CEM leukemia
HT29 colon = tested on: HT29 colon
NCI-H23 lung = tested on: NCI-H23 lung
MALME-3M melanoma = tested on: MALME-3M melanoma
PC-3 prostate = tested on: PC-3 prostate
SW-620 colon = tested on: SW-620 colon
HOP-62 NSCLC = tested on: HOP-62 NSCLC
OVCAR-5 ovarian = tested on: OVCAR-5 ovarian
RXF 393 renal = tested on: RXF 393 renal
HS 578T breast = tested on: HS 578T breast
MDA-MB-435 = tested on: MDA-MB-435
SK-MEL-2 melanoma = tested on: SK-MEL-2 melanoma
SF-295 CNS = tested on: SF-295 CNS
A498 renal = tested on: A498 renal
SNB-75 CNS = tested on: SNB-75 CNS
786-0 renal = tested on: 786-0 renal
SNB-19 CNS = tested on: SNB-19 CNS
NCI-H226 lung = tested on: NCI-H226 lung
TK-10 renal = tested on: TK-10 renal
SK-MEL-28 melanoma = tested on: SK-MEL-28 melanoma
HCT-15 colon = tested on: HCT-15 colon
OVCAR-3 ovarian = tested on: OVCAR-3 ovarian
UACC-62 melanoma = tested on: UACC-62 melanoma
CAKI-1 renal = tested on: CAKI-1 renal
SK-OV-3 ovarian = tested on: SK-OV-3 ovarian
T-47D breast = tested on: T-47D breast
A549 NSCLC = tested on: A549 NSCLC
ACHN renal = tested on: ACHN renal
MOLT-4 leukemia = tested on: MOLT-4 leukemia
KM12 colon = tested on: KM12 colon
SN12C renal = tested on: SN12C renal
SR leukemia = tested on: SR leukemia
HCC-2998 colon = tested on: HCC-2998 colon
M14 melanoma = tested on: M14 melanoma
DU-145 prostate = tested on: DU-145 prostate
SK-MEL-5 melanoma = tested on: SK-MEL-5 melanoma
MDA-MB-231 breast = tested on: MDA-MB-231 breast
NCI-H460 lung = tested on: NCI-H460 lung
HCT-116 colon = tested on: HCT-116 colon
EKVX NSCLC = tested on: EKVX NSCLC
U251 CNS = tested on: U251 CNS
UACC-257 melanoma = tested on: UACC-257 melanoma
HL-60(TB) leukemia = tested on: HL-60(TB) leukemia

## CC([C@H]1CC=C2C3CCC4=C[C@@H](N(C)C)CC[C@]4(C)C3CC[C@@]21C)N(C)C (stereo not given in full)
LOX IMVI melanoma
  GI50: 1.6 µM
  TGI: 3.69 µM
K-562 leukemia
  GI50: 0.611 µM
  TGI: 3.05 µM
IGROV1 ovarian
  GI50: 4.88 µM
NCI/ADR-RES ovarian
  GI50: 4.25 µM
  TGI: 18.2 µM
MCF7 breast
  GI50: 1.98 µM
  TGI: 9.4 µM
COLO 205 colon
  GI50: 1.7 µM
  TGI: 3.37 µM
HOP-92 NSCLC
  GI50: 3.66 µM
  TGI: 10.3 µM
UO-31 renal
  GI50: 1.95 µM
  TGI: 5.54 µM
OVCAR-4 ovarian
  GI50: 3.26 µM
  TGI: 21.9 µM
RPMI-8226 leukemia
  GI50: 1.91 µM
  TGI: 13 µM
SF-539 CNS
  GI50: 1.4 µM
  TGI: 2.84 µM
SF-268 CNS
  GI50: 1.98 µM
  TGI: 4.71 µM
BT-549 breast
  GI50: 3.54 µM
  TGI: 15.4 µM
OVCAR-8 ovarian
  GI50: 5.85 µM
  TGI: 22.3 µM
NCI-H522 lung
  GI50: 7.12 µM
  TGI: 25 µM
CCRF-CEM leukemia
  GI50: 2.11 µM
  TGI: 7.79 µM
HT29 colon
  GI50: 0.455 µM
  TGI: 2.11 µM
NCI-H23 lung
  GI50: 3.15 µM
  TGI: 14.8 µM
MALME-3M melanoma
  GI50: 1.92 µM
  TGI: 4.47 µM
PC-3 prostate
  GI50: 2.15 µM
  TGI: 7.72 µM
SW-620 colon
  GI50: 2.49 µM
  TGI: 8.24 µM
HOP-62 NSCLC
  GI50: 1.8 µM
  TGI: 3.87 µM
OVCAR-5 ovarian
  GI50: 6.23 µM
  TGI: 19.5 µM
RXF 393 renal
  GI50: 4.28 µM
  TGI: 17.3 µM
HS 578T breast
  GI50: 3.24 µM
  TGI: 13.6 µM
MDA-MB-435
  GI50: 2 µM
  TGI: 4.94 µM
SK-MEL-2 melanoma
  GI50: 8.23 µM
  TGI: 21 µM
SF-295 CNS
  GI50: 1.79 µM
  TGI: 4.35 µM
A498 renal
  GI50: 3.27 µM
  TGI: 13.9 µM
SNB-75 CNS
  GI50: 3.3 µM
  TGI: 10.6 µM
786-0 renal
  GI50: 2.94 µM
  TGI: 7.99 µM
SNB-19 CNS
  GI50: 7.57 µM
  TGI: 20.4 µM
NCI-H226 lung
  GI50: 4.52 µM
  TGI: 21.5 µM
TK-10 renal
  GI50: 5.42 µM
  TGI: 20 µM
SK-MEL-28 melanoma
  GI50: 1.74 µM
  TGI: 3.38 µM
HCT-15 colon
  GI50: 1.38 µM
  TGI: 3.82 µM
OVCAR-3 ovarian
  GI50: 2.45 µM
  TGI: 8.74 µM
UACC-62 melanoma
  GI50: 1.75 µM
  TGI: 3.59 µM
CAKI-1 renal
  GI50: 2.49 µM
  TGI: 10.3 µM
SK-OV-3 ovarian
  GI50: 3.86 µM
  TGI: 11.6 µM
T-47D breast
  GI50: 1.17 µM
  TGI: 7.77 µM
A549 NSCLC
  GI50: 3.97 µM
  TGI: 11.1 µM
ACHN renal
  GI50: 4.07 µM
  TGI: 14.7 µM
MOLT-4 leukemia
  GI50: 1.97 µM
  TGI: 5.31 µM
KM12 colon
  GI50: 2.77 µM
  TGI: 11.9 µM
SN12C renal
  GI50: 2.54 µM
  TGI: 12.1 µM
SR leukemia
  GI50: 0.876 µM
  TGI: 4.19 µM
HCC-2998 colon
  GI50: 4.21 µM
  TGI: 13.1 µM
M14 melanoma
  GI50: 1.76 µM
  TGI: 3.53 µM
DU-145 prostate
  GI50: 6.63 µM
  TGI: 20.4 µM
SK-MEL-5 melanoma
  GI50: 1.35 µM
  TGI: 2.71 µM
MDA-MB-231 breast
  GI50: 2.33 µM
  TGI: 7.9 µM
NCI-H460 lung
  GI50: 2.07 µM
  TGI: 5.48 µM
HCT-116 colon
  GI50: 1.07 µM
  TGI: 2.76 µM
EKVX NSCLC
  GI50: 1.99 µM
  TGI: 18.3 µM
U251 CNS
  GI50: 3.21 µM
  TGI: 15.4 µM
UACC-257 melanoma
  GI50: 6.1 µM
  TGI: 19.4 µM
HL-60(TB) leukemia
  GI50: 1.26 µM
  TGI: 3.66 µM
